{"source": "patent US20190314196A1", "about": "“Topical Ocular Delivery Methods and Devices for Use in the Same” (Kedalion Therapeutics, Inc., priority 2018, published 2019)", "format_in_all_cases": "in vivo, human", "key": {"[1]": {"test_system": "patients diagnosed with primary open angle glaucoma", "test": "Trial 2: intraocular pressure reduction, Goldmann applanation tonometry", "details": "for Post-treatment IOP, Mean: 0.005% w/v, N=18 eyes; for Post-treatment IOP, Mean / average decrease in IOP measured per patient / Post-treatment IOP, Median: approx. 8 hours after dosing; for Post-treatment IOP, Median: baseline median 18.0; for Total pressure reduction, Mean / Total pressure reduction, Median: signed change from baseline", "procedure": "Trial 2 compared the efficacy (dose volume equivalence) of 0.005% w/v latanoprost for intraocular pressure reduction when delivered via AcuStream™ (pre-trial calibration volume=9.2 μl) versus the standard eye dropper for topical drug delivery (approximate volume=30 μl).\nPatients included in Trial 2 have previously been diagnosed with primary open angle glaucoma on the basis of intraocular pressure and visual field testing, fundus examination or optical coherence tomography (OCT) data and are currently on prostaglandin analog medical therapy. Patients with corneal abnormalities that would interfere with accurate IOP measurements with applanation tonometry, use of an oral or topical ophthalmic steroids within the past 14 days from screening date, any active ocular surface or anterior segment disease, or progressive field loss during the past year were excluded from the study. Thirteen men and five women participated in the trial.\nRecruited patients were taken off medical therapy for a period of 3-4 weeks prior to the study to allow drug “wash out”, thereby elevating their IOPs to pre-treatment levels which was confirmed by examination of the patients' chart history. Patients were randomly assigned as “test” (AcuStream™), or “control” (standard eye dropper). The mean age of the control group and test group were 61.0 years and 65.2 years, respectively.\nThe patients assigned to either the “test” or “control” group by means of a random numbers table in order to mitigate any potential cross-over effects that could confound data interpretation. An odd number dictated that the patient was in the test group, while even-numbered patients were in the control group.\nAfter performing slit lamp examinations on each patient to verify eligibility and obtaining informed consent, intraocular pressure (IOP) was measured by a sole experienced examiner who was blind to the randomized conditions. A pre-calibrated Goldmann applanation tonometer coupled to a Haag-Streit 900 EQ slit lamp was used to conduct baseline IOP measurements. Once baseline IOP data were verified to be equivalent to pre-medical therapy levels (based on patient's treatment history), the patient then continued to the dosing stage of the study.\nLatanoprost solution was administered by a sole ophthalmologist to both eyes of each patient, based on the pre-determined randomized condition."}, "eye of subjects [2]": {"test_system": "eye of subjects", "test": "Presbyopia: near visual acuity, Snellen card at 40 cm", "details": "45 to 60 minutes after dosing", "procedure": "(§1) A 10 μl micro-dose of a 1% pilocarpine solution was self-administered using an electromagnetic actuated fluid delivery device, e.g., as described above, by three subjects to their own eye. The age range of the subjects was 52 years to 68 years, and all subjects were male. The pilocarpine micro-dose was self-administered by the subjects.\n(§2) Baseline, pre-dose values of pupil diameter and near visual acuity in both eyes prior to dosing was measured for all subjects, and then following the baseline measurements, the subjects were dosed in only one eye (the eye with the poorer visual acuity) with the micro-dose pilocarpine solution. Approximately 45 to 60 minutes after dosing, pupil diameter and near visual acuity were again tested. Near visual acuity was measured using a Snellen card at a distance of 40 cm. A tabulation of results is given below in Table A."}, "eye of subjects [3]": {"test_system": "eye of subjects", "test": "Presbyopia: pupil diameter after self-administered pilocarpine micro-dose", "procedure": "as §1, §2"}, "[4]": {"details": "standard eye dropper control group"}}}
{"smiles": "CC(C)OC(=O)CCC/C=C\\C[C@@H]1[C@@H](CC[C@@H](O)CCc2ccccc2)[C@H](O)C[C@@H]1O", "note": "[latanoprost]", "values": [{"measurement": "difference in IOP reduction between groups", "setting": "[1]; AcuStream 9.2 μl versus standard eye dropper 30 μl", "result": "no statistically significant differences"}, {"measurement": "Post-treatment IOP, Mean", "setting": "[1]; AcuStream test group, 9.2 μl, baseline 18.6", "result": 13.6, "unit": "mm Hg"}, {"measurement": "average decrease in IOP measured per patient", "setting": "[1]; AcuStream test group", "result": 5.0, "unit": "mm Hg"}, {"measurement": "Post-treatment IOP, Median", "setting": "[1]; AcuStream test group", "result": 13.0, "unit": "mm Hg"}, {"measurement": "Total pressure reduction, Mean", "setting": "[1]; AcuStream test group", "result": "−5.0", "unit": "mm Hg"}, {"measurement": "Total pressure reduction, Median", "setting": "[1]; AcuStream test group", "result": "−5.0", "unit": "mm Hg"}, {"measurement": "post-instillation IOP (OD), single patient outlier", "setting": "[1]; control group, baseline IOP 30 mm Hg", "result": 17, "unit": "mm Hg"}, {"measurement": "equivalence of 9.2 μl AcuStream dose to 30 μl standard eye drop, intraocular pressure reduction", "setting": "[1]; latanoprost 0.005% w/v", "result": "pharmacodynamic equivalence"}, {"measurement": "Post-treatment IOP, Mean", "setting": "[1]; standard eye dropper control group, approx. 30 μl, baseline 17.7", "result": 13.3, "unit": "mm Hg"}, {"measurement": "average decrease in IOP measured per patient", "setting": "[1]; [4]", "result": 4.3, "unit": "mm Hg"}, {"measurement": "Post-treatment IOP, Median", "setting": "[1]; [4]", "result": 12.0, "unit": "mm Hg"}, {"measurement": "Total pressure reduction, Mean", "setting": "[1]; [4]", "result": "−4.3", "unit": "mm Hg"}, {"measurement": "Total pressure reduction, Median", "setting": "[1]; [4]", "result": "−4.0", "unit": "mm Hg"}]}
{"smiles": "CC[C@@H]1C(=O)OC[C@@H]1Cc1cncn1C", "note": "[pilocarpine]", "values": [{"measurement": "Median dosed eye near visual acuity", "setting": "eye of subjects [2]; baseline median 20/30", "result": "20/20"}, {"measurement": "# of lines change in visual acuity (mean improvement)", "setting": "eye of subjects [2]; dosed eye, 3 subjects", "result": 2, "unit": "lines"}, {"measurement": "Mean change in dosed pupil dia", "setting": "eye of subjects [3]; dosed eye, 10 μl micro-dose of 1% solution, 45 to 60 minutes after dosing, 3 subjects", "result": "−0.7", "unit": "mm"}, {"measurement": "Mean post-dose pupil dia", "setting": "eye of subjects [3]; dosed eye, 10 μl micro-dose of 1% solution, 45 to 60 minutes after dosing, 3 subjects, baseline mean 2.9 mm", "result": 2.2, "unit": "mm"}, {"measurement": "mean reduction in pupil diameter", "setting": "eye of subjects [3]; dosed eye, 10 μl micro-dose of 1% solution, all subjects", "result": 0.70, "unit": "mm"}, {"measurement": "miotic effect in non-dosed eye", "setting": "eye of subjects [3]; non-dosed contralateral eye", "result": "no miotic effect"}, {"measurement": "Mean change in non-dosed pupil dia", "setting": "eye of subjects [3]; non-dosed contralateral eye, 45 to 60 minutes after dosing", "result": 0.2, "unit": "mm"}, {"measurement": "Mean non-dose pupil dia", "setting": "eye of subjects [3]; non-dosed contralateral eye, 45 to 60 minutes after dosing, baseline mean 2.8 mm", "result": 3.0, "unit": "mm"}]}
